{"source": "patent EP1219631A1", "about": "“ANTIANDROGEN AGENTS” (CHUGAI SEIYAKU KABUSHIKI KAISHA, priority 1999, dated 2001)", "key": {"[1]": {"system": "castrated rats", "conditions": "two-week continuous administration; cited from earlier work"}, "[2]": {"molecular_target": "T1, human androgen receptor (Homo sapiens, UniProt P10275)", "T1 construct": "expressed in transfected cells; host or cells: HeLa cells", "T1 sequence (P10275 1-920)": "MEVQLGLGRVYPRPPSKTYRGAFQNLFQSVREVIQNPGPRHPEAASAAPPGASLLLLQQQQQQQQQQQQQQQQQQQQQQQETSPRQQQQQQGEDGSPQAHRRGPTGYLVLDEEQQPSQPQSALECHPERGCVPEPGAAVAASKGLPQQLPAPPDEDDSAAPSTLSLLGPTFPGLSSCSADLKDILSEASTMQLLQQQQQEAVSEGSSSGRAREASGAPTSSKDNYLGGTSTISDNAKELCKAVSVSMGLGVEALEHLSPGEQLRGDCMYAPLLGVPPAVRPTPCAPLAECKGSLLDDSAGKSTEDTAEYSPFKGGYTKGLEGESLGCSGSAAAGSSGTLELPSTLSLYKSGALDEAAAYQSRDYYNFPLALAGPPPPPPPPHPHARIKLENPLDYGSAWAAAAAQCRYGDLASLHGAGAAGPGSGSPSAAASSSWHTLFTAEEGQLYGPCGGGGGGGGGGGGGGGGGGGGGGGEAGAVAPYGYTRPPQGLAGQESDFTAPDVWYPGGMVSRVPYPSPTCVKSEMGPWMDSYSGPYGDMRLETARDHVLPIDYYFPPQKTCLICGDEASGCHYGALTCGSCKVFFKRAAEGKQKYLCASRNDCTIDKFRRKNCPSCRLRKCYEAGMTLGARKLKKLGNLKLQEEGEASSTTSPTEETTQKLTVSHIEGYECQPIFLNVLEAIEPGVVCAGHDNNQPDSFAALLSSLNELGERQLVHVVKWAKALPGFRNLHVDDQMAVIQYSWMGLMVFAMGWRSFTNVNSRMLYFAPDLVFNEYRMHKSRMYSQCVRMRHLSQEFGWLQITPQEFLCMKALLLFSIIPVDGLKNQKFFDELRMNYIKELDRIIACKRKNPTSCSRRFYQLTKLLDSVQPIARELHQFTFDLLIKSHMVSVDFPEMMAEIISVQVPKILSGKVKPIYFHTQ", "test": "Androgen receptor reporter gene assay, antagonist action against DHT (MMTV-Luc, pSG5/hAR and Renilla Luc vectors transfected into HeLa cells, dual-luciferase)", "assay_type": "cell-based", "method": "The expression \"acting as antagonist\" means that in the following androgen receptor gene assay, the transcriptional activity value of 0.1 nmol/L of dihydrotestosterone (DHT) is inhibited to 0 - 50% at any concentration of 0.1 nmol/L - 10 µmol/L:\nTwenty-four hours before transfection, 1.0 x 10^5 HeLa cells are cultured in phenol red free DMEM/5% DCC-FBS on 12-well microplates. Five hundred nanograms/well of MMTV-Luc vector, 100 ng/well of pSG5/hAR and 5 ng/well of Renilla Luc vector are transfected into the HeLa cells. The transfection is performed in a liquid culture of the phenol red free DMEM using […] of lipofectoamine. Nine hours after the transfection, the liquid culture is replaced by phenol red free DMEM/3% DCC-FBS containing 0.1 nmol/L of DHT and […] of a compound of the invention which is represented by the general formula (I) or the substance of the invention which acts as antagonist against but not as agonist for the androgen receptor. The transcriptional activity value is measured 48 hours after the replacement of the liquid culture. Transcriptional activity is measured with a dual-luciferase reporter assay system. The transcriptional activity value is defined as the value for firefly luciferase divided by the value for sea pansy luciferase. […] 270, pp. 19998-20003, 1995.\n(§1) Twenty-four hours before transfection, 1.0 x 10^5 HeLa cells were cultured in phenol red free DMEM/5% DCC-FBS on 12-well microplates. Five hundred nanograms/well of MMTV-Luc vector, 100 ng/well of pSG5/hAR and 5 ng/well of Renilla Luc vector were transfected into the HeLa cells. The transfection was performed in a liquid culture of the phenol red free DMEM using […] of lipofectoamine. […] The transcriptional activity value was measured 48 hours after the replacement of the liquid culture. Transcriptional activity was measured with a dual-luciferase reporter assay system. The transcriptional activity value was calculated as the value for firefly luciferase divided by the value for sea pansy luciferase.\nThe compound was added at concentrations of 1, 10, 100, 1000 and 10000 nmol/L and at each of these concentrations, measurement was done in the presence of DHT (0.1 nmol/L). Antagonist activity = Transcriptional activity when the compound was added/Transcriptional activity when the compound was not added x 100 [formula]"}, "[3]": {"molecular_target": "androgen receptor (Homo sapiens, UniProt P10275)", "conditions": "cited from earlier work"}, "[4]": {"molecular_target": "T1, human androgen receptor", "test": "Androgen receptor reporter gene assay, agonist action (MMTV-Luc, pSG5-hAR and Renilla Luc vectors transfected into HeLa cells, dual-luciferase)", "assay_type": "cell-based", "conditions": "for FI5 value: concentration showing a transcriptional activity five times that without compound, tested at 1, 10, 100, 1000 and 10000 nmol/L", "excerpt": "Speaking of the substance of the invention which acts as antagonist against but not as agonist for the androgen receptor, the expression \"not acting as agonist\" means that in the following androgen receptor gene assay, the transcriptional activity value of the substance at any concentration of 0.1 nmol/L - 10 µmol/L is from one to five times the transcriptional activity value for no addition of the substance which is taken as unity:\nTwenty-four hours before transfection, 1.0 x 10^5 HeLa cells (purchased from Dainippon Pharmaceutical Co., Ltd.) are cultured in phenol red free Dulbecco's modified Eagle medium (DMEM) containing 5% of charcoal-treated FBS (DCC-FBS) in 12-well microplates. Five hundred nanograms/well of MMTV-Luc vector (the reporter plasmid of luciferase having mouse tumor long terminal repeats containing the androgen response element: GM-CAT vector (A.T.C.C. No. 67282) purchased from A.T.C.C. provided that the chloramphenicol acetyl transferase gene was replaced by the firefly luciferase gene), 100 ng/well of pSG5-hAR (the expression vector of the human androgen receptor which harbors the androgen receptor gene under the control of SV40 promoter) and 5 ng/well of Renilla Luc vector (a vector for internal standard incorporating the sea pansy luciferase gene) are transfected into the HeLa cells. The transfection is performed in a liquid culture of the phenol red free DMEM using […] of lipofectoamine (GibcoBRL). Nine hours after the transfection, the liquid culture is replaced by phenol red free DMEM/3% DCC-FBS containing 10 µmol/L of a compound of the invention which is represented by the general formula (I) or the substance of the invention which acts as antagonist against but not as agonist for the androgen receptor. The transcriptional activity value is measured 48 hours after the replacement of the liquid culture. Transcriptional activity is measured with a dual-luciferase reporter assay system (Promega). The transcriptional activity value is defined as the value for firefly luciferase divided by the value for sea pansy luciferase. […] 270, pp. 19998-20003, 1995.\nas §1, with “pSG5-hAR” for “pSG5/hAR”\nThe compound was added at concentrations of 1, 10, 100, 1000 and 10000 nmol/L. Agonist activity = Transcriptional activity when the compound was added/Transcriptional activity when the compound was not added [formula]"}, "[5]": {"conditions": "prostate cancer patients under flutamide treatment; cited from earlier work"}}, "note": "pIC50: −log10 of the molar value."}
{"smiles": "CC(=O)O[C@]1(C(C)=O)CC[C@H]2[C@@H]3C=C(Cl)C4=CC(=O)[C@@H]5C[C@@H]5[C@]4(C)[C@H]3CC[C@@]21C", "note": "[cyproterone acetate]", "values": [{"measurement": "prostate weight", "setting": "[1]", "result": "increased"}]}
{"smiles": "CC(C)(O)C(=O)Nc1ccc([N+](=O)[O-])c(C(F)(F)F)c1", "note": "[Hydroxyflutamide, hydroxyflutamide]", "values": [{"measurement": "transcriptional activity value of DHT", "setting": "[2]; text of Example 2, with 0.1 nmol/L of DHT, HeLa cells, 48 hours", "result": "less than 50%"}, {"measurement": "transcriptional activity of the androgen receptor", "setting": "[3]", "result": "elevated"}, {"measurement": "acting as agonist", "setting": "[4]; at a concentration of 10 µmol/L", "result": "act as agonist"}, {"measurement": "FI5 value", "setting": "[4]", "result": 1000, "unit": "nM"}, {"measurement": "agonist action for the androgen receptor mediated transcriptional activity", "setting": "[4]; summary of the results of Example 180", "result": "exhibit agonist action"}, {"measurement": "Plasma levels", "setting": "[5]", "result": "several"}]}
{"smiles": "CC(=O)O[C@]1(C(C)=O)CC[C@H]2[C@@H]3C=C(Cl)C4=CC(=O)CC[C@]4(C)[C@H]3CC[C@@]21C", "note": "[chlormadinone acetate]", "values": [{"measurement": "prostate weight", "setting": "[1]", "result": "increased"}]}
{"smiles": "CC(C)NC(=O)CCCCCCCC1CC2CC(=O)CCC2(C)C2CCC3(C)C(O)CCC3C12", "note": "(stereo not shown) [Example 14]", "values": [{"measurement": "pIC50", "setting": "[2]", "result": 5.70}, {"measurement": "FI5 value", "setting": "[4]", "result": "ND (even when the compound was added at a concentration of 10000 nM, the transcriptional activity of the compound-treated group was less than 5 times the transcriptional activity of the control group, making it impossible to compute the FI5 value)"}]}
